Data from patent US4937243A, “Thiol carboxylic acid derivatives and their use as colagenase inhibitors” (Beecham Group p.l.c., priority 1986, dated 1990).
pIC50: −log10 of the molar value.

Each compound was assayed against T1, purified rabbit bone collagenase (Oryctolagus cuniculus, UniProt P13943) (assay: Collagenase inhibitor assay (14C-acetylated rat skin Type I collagen as substrate)). Conditions: 5-15 min preincubation at 37° C., 37° C. overnight, read-out: IC50 (amount of compound which inhibits a known amount of enzyme by 50%).
T1 construct: from tissue; host or cells: rabbit bone
T1 sequence (P13943 99-468): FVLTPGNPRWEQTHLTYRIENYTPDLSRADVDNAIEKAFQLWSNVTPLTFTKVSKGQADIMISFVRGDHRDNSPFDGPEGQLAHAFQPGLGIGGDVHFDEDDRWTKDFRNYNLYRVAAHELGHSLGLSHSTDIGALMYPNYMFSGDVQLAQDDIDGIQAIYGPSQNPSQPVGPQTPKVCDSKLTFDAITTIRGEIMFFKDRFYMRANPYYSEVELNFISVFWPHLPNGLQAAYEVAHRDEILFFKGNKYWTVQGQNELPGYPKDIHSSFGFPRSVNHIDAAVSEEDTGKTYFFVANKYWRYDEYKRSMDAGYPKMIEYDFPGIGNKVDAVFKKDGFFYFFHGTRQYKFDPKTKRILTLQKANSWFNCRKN
Type: biochemical
Method: The test is performed essentially as in Cawston and Barrett Anal. Biochem. 99, 340-345 (1979). Compounds for testing are dissolved in methanol and added to purified rabbit bone collagenase in buffer. After a 5-15 min incubation at 37° C., the assay tubes are cooled to 4° C. and ^14 C-acetylated rat skin Type I collagen is added. The assay tubes are incubated at 37° C. overnight. The ^14 C-collagen forms insoluble fibrils which are the substrate for the enzyme.
To terminate the assay, the assay tubes are spun at 12000 rpm for 15 min. Undigested ^14 C-collagen is pelleted, digested ^14 C-collagen is found as soluble peptides in the supernatant. A sample of the supernatant is taken for liquid scintillation counting.

Row | SMILES | pIC50
1 | CNC(=O)[C@H](Cc1ccc(OC)cc1)NC(=O)C(CC(C)C)C(S)CC(=O)OCc1ccccc1 (single isomer, unassigned) [4 D] | 4.90
2 | CNC(=O)CC(S)C(CC(C)C)C(=O)N[C@@H](Cc1ccc(OC)cc1)C(=O)NC (single isomer, unassigned) [8 A] | 7.85 to 8.33
3 | CNC(=O)[C@H](Cc1ccccc1)NC(=O)C(CC(C)C)C(S)CC(=O)OC (single isomer, unassigned) [10 A] | 8.08
4 | CNC(=O)[C@H](Cc1ccc(OC)cc1)NC(=O)C(CC(C)C)C(S)CC(=O)OCc1ccccc1 (single isomer, unassigned) [4 B] | 6.57
5 | CNC(=O)[C@H](Cc1ccc(OC)cc1)NC(=O)C(CC(C)C)C(S)CC(=O)OCc1ccccc1 (single isomer, unassigned) [4 C] | 6.64
6 | CNC(=O)[C@H](Cc1ccc(OC)cc1)NC(=O)C(CC(C)C)C(S)CC(=O)OCc1ccccc1 (single isomer, unassigned) [4 A] | 7.51

Further lines, results first:

Row | pIC50 | SMILES
7 | 7.00 | CNC(=O)[C@H](Cc1ccc(OC)cc1)NC(=O)C(CC(C)C)C(S)CC(=O)OC (mixture of isomers) [2 mixture of diastereoisomers]
8 | 7.14 | CNC(=O)[C@H](Cc1ccc(OC)cc1)NC(=O)C(CC(C)C)C(S)CC(=O)OC (single isomer, unassigned) [2 B]
9 | 8.19 to 8.41 | CNC(=O)[C@H](Cc1ccc(OC)cc1)NC(=O)C(CC(C)C)C(S)CC(=O)OC (single isomer, unassigned) [2 A]
